Measured values from article PMC12649549, “Sequence Permutation Generated Lysine and Tryptophan-Rich Antimicrobial Peptides with Enhanced Therapeutic Index” (Antibiotics, 2025).
Read-outs that look alike come from different tables or passages of the source.

How the values were obtained:
S. aureus ATCC 33593 = tested on: S. aureus ATCC 33593
In short: (§1)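 Broth microdilution per CLSI in Müller-Hinton broth and modified LYM broth (pH 7.4; variants with 50–300 mM NaCl, 0.5–2.5 mM MgCl2, or pH 6.5–4.5). Inoculum 5 × 10^5 CFU/mL; peptides tested at 0.78–50 µg/mL final. MIC read; three independent repeats.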

[1] = tested on: A. baumannii 14B00100 (Acinetobacter sp., BCRC number 14B0100)
In short: as §1

[2] = tested on: A. baumannii 14B0091 (Acinetobacter sp., BCRC number 14B0091)
In short: as §1

S. aureus ATCC 33591 = tested on: S. aureus ATCC 33591
In short: as §1

S. aureus ATCC 25923 = tested on: S. aureus ATCC 25923
In short: as §1

[3] = tested on: Pseudomonas aeruginosa Migula (ATCC 27853)
In short: as §1

[4] = tested on: Escherichia coli (ATCC 25922)
In short: as §1

[5] = LYM broth, 0 mM NaCl, 16 h, 37 °C
[6] = LYM broth, 50 mM NaCl, 16 h, 37 °C
[7] = LYM broth, 100 mM NaCl, 16 h, 37 °C
[8] = LYM broth, 200 mM (NaCl), 16 h, 37 °C
[9] = LYM broth, 300 mM (NaCl), 16 h, 37 °C
[10] = MH broth, 5 × 10^5 CFU/mL, 16 h, 37 °C, repeated three times

Ac-LAKKKKWRKWLKW-NH2 [Peptide W5K09]
MIC (S. aureus ATCC 33593; [5]): 25 µg/mL | MIC (S. aureus ATCC 33593; LYM broth, 0.5 mM MgCl2): 25 µg/mL | MIC (S. aureus ATCC 33593; LYM broth, 1.5 mM MgCl2): 25 µg/mL | MIC (S. aureus ATCC 33593; LYM broth, 2.5 mM MgCl2): 50 µg/mL | MIC (S. aureus ATCC 33593; [6]): 25 µg/mL | MIC (S. aureus ATCC 33593; [7]): 50 µg/mL | MIC (S. aureus ATCC 33593; [8]): >50 µg/mL | MIC (S. aureus ATCC 33593; [9]): >50 µg/mL | MIC (S. aureus ATCC 33593; LYM broth, pH 4.5): 25 µg/mL | MIC (S. aureus ATCC 33593; LYM broth, pH 5.5): 25 µg/mL | MIC (S. aureus ATCC 33593; LYM broth, pH 6.5): 12.5 µg/mL | MIC (S. aureus ATCC 33593; [10]): >50 µg/mL | MIC [1, 5]: 3.13 µg/mL | MIC ([1]; LYM broth, 0.5 mM MgCl2): 3.13 µg/mL | MIC ([1]; LYM broth, 1.5 mM MgCl2): 3.13 µg/mL | MIC ([1]; LYM broth, 2.5 mM MgCl2): 3.13 µg/mL | MIC [1, 6]: 3.13 µg/mL | MIC [1, 7]: 6.25 µg/mL | MIC [1, 8]: 25 µg/mL | MIC [1, 9]: >50 µg/mL | MIC ([1]; LYM broth, pH 4.5): 3.13 µg/mL | MIC ([1]; LYM broth, pH 5.5): 1.56 µg/mL | MIC ([1]; LYM broth, pH 6.5): 1.56 µg/mL | MIC [1, 10]: 50 µg/mL | MIC [2, 5]: 1.56 µg/mL | MIC ([2]; LYM broth, 0.5 mM MgCl2): 3.13 µg/mL | MIC ([2]; LYM broth, 1.5 mM MgCl2): 3.13 µg/mL | MIC ([2]; LYM broth, 2.5 mM MgCl2): 3.13 µg/mL | MIC [2, 6]: 6.25 µg/mL | MIC [2, 7]: 12.5 µg/mL | MIC [2, 8]: 50 µg/mL | MIC [2, 9]: >50 µg/mL | MIC ([2]; LYM broth, pH 4.5): 6.25 µg/mL | MIC ([2]; LYM broth, pH 5.5): 3.13 µg/mL | MIC ([2]; LYM broth, pH 6.5): 1.56 µg/mL | MIC [2, 10]: 50 µg/mL | MIC (S. aureus ATCC 33591; [5]): 25 µg/mL | MIC (S. aureus ATCC 33591; LYM broth, 0.5 mM MgCl2): 25 µg/mL | MIC (S. aureus ATCC 33591; LYM broth, 1.5 mM MgCl2): 50 µg/mL | MIC (S. aureus ATCC 33591; LYM broth, 2.5 mM MgCl2): 50 µg/mL | MIC (S. aureus ATCC 33591; [6]): 25 µg/mL | MIC (S. aureus ATCC 33591; [7]): 50 µg/mL | MIC (S. aureus ATCC 33591; [8]): >50 µg/mL | MIC (S. aureus ATCC 33591; [9]): >50 µg/mL | MIC (S. aureus ATCC 33591; LYM broth, pH 4.5): 25 µg/mL | MIC (S. aureus ATCC 33591; LYM broth, pH 5.5): 12.5 µg/mL | MIC (S. aureus ATCC 33591; LYM broth, pH 6.5): 12.5 µg/mL | MIC (S. aureus ATCC 33591; [10]): >50 µg/mL | MIC (S. aureus ATCC 25923; [5]): 3.13 µg/mL | MIC (S. aureus ATCC 25923; LYM broth, 0.5 mM MgCl2): 3.13 µg/mL | MIC (S. aureus ATCC 25923; LYM broth, 1.5 mM MgCl2): 6.25 µg/mL | MIC (S. aureus ATCC 25923; LYM broth, 2.5 mM MgCl2): 6.25 µg/mL | MIC (S. aureus ATCC 25923; [6]): 6.25 µg/mL | MIC (S. aureus ATCC 25923; [7]): 12.5 µg/mL | MIC (S. aureus ATCC 25923; [8]): 50 µg/mL | MIC (S. aureus ATCC 25923; [9]): >50 µg/mL | MIC (S. aureus ATCC 25923; LYM broth, pH 4.5): 6.25 µg/mL | MIC (S. aureus ATCC 25923; LYM broth, pH 5.5): 3.13 µg/mL | MIC (S. aureus ATCC 25923; LYM broth, pH 6.5): 1.56 µg/mL | MIC (S. aureus ATCC 25923; [10]): 25 µg/mL | MIC [3, 5]: 3.13 µg/mL | MIC ([3]; LYM broth, 0.5 mM MgCl2): 6.25 µg/mL | MIC ([3]; LYM broth, 1.5 mM MgCl2): 6.25 µg/mL | MIC ([3]; LYM broth, 2.5 mM MgCl2): 12.5 µg/mL | MIC [3, 6]: 6.25 µg/mL | MIC [3, 7]: 12.5 µg/mL | MIC [3, 8]: 50 µg/mL | MIC [3, 9]: >50 µg/mL | MIC ([3]; LYM broth, pH 4.5): 6.25 µg/mL | MIC ([3]; LYM broth, pH 5.5): 3.13 µg/mL | MIC ([3]; LYM broth, pH 6.5): 3.13 µg/mL | MIC [3, 10]: 25 µg/mL | MIC [4, 5]: 6.25 µg/mL | MIC ([4]; LYM broth, 0.5 mM MgCl2): 6.25 µg/mL | MIC ([4]; LYM broth, 1.5 mM MgCl2): 12.5 µg/mL | MIC ([4]; LYM broth, 2.5 mM MgCl2): 12.5 µg/mL | MIC [4, 6]: 12.5 µg/mL | MIC [4, 7]: 25 µg/mL | MIC [4, 8]: 50 µg/mL | MIC [4, 9]: >50 µg/mL | MIC ([4]; LYM broth, pH 4.5): 6.25 µg/mL | MIC ([4]; LYM broth, pH 5.5): 3.13 µg/mL | MIC ([4]; LYM broth, pH 6.5): 3.13 µg/mL | MIC [4, 10]: 25 µg/mL
